The values below come from patent US20130065820A1, “SYNTHETIC MYOSTATIN PEPTIDE ANTAGONISTS” (COVITA LIMITED, priority 2009, published 2013).

One experiment relates to myoblasts. The experiment can be described thus: Myoblast proliferation / biological activity of synthetic peptides with other cysteine connectivities (results not shown). The format is cell-based. The note with it: synthetic peptides of stated connectivity or truncation. Here is the method: (§1) Bovine C2C12 myoblasts were grown in Dulbecco's modified eagle medium according to the standard techniques (Thomas et al, 2000). The myoblast proliferation assay was carried out in uncoated 96-well microtitre plates. C2C12 cultures were seeded at 1000 cells/well. Following a 16-hour attachment period, test media containing varying concentrations of either the synthetic 310 peptide in the 2-3 conformation, the synthetic 310 peptide in the 1-4/2-3 conformation or the positive control (recombinant 310 peptide) were added and cells were incubated for a further 48 or 72 hour period. After the incubation period, proliferation was assessed using methylene blue photometric endpoint assay as previously described (Thomas et al, 2000).
A number of synthetic peptides were prepared having an amino acid sequence corresponding to amino acids at positions 267-310 and 282-310 of SEQ ID NO:1. Of the 267-310 peptides a number of different connectivities were prepared as follows: • 1. 1-3/2-4 • 2. 1-2/3-4 • 3. 1-2 • 4. 1-3 • 5. 1-4 • 6. 1-2, 3-4/1-3, 2-4 • 7. 2-4 • 8. 3-4 • 9. 1-4/2-3 • 10. Linear (no forced connectivity)
The peptides were synthesized as described above in example 1. Different cysteine residues were protected and deprotected to produce the specified connectivities and would be understood by a skilled worker.

The test system of experiment [1] is C2C12 myoblasts. The experiment is described as follows: Myoblast proliferation assay (methylene blue photometric endpoint). The class given is cell-based, Mouse. The note with it: for % proliferation above control: control (media + buffer) = 100%; for myoblast proliferation / biological activity (in words): 48 or 72 hours, compared to control (media and buffer only).
Source text: A synthetic peptide of the invention, or a functional variant or fragment thereof has the biological function of antagonising myostatin activity. To determine whether a synthetic peptide of the invention, or functional variant or fragment thereof, is able to antagonise myostatin activity, such activity can be tested by growing myoblasts in the presence or absence (control) of a candidate synthetic peptide of the invention. […] A suitable cell line could be murine C2Cl2 myoblasts (ATCC NO: CRL-1772), however, it will be appreciated that any suitable myoblast cell line could be used, such as primary ovine, bovine, porcine or human myoblasts.
as §1, with “The” for “Bovine C2C12 myoblasts were grown in Dulbecco's modified eagle medium according to the standard techniques (Thomas et al, 2000). The”

Experiment [2] has as its system C2C12 myoblasts. The experiment can be described thus: Nuclei count per well by DAPI staining of the myoblast proliferation plates. The format is cell-based, Bovine. Here is the method: as §1
To confirm that the increased proliferation observed in example 1 was not simply false positive results, the plates were used to count nuclei.
Cells in the wells of interest were stained with DAPI (4′-6-diamidino-2-phenylindole) which is a fluorescent dye that stains nuclei blue. DAPI was used at a concentration of […] in PBS and cells stained for 5 mins at room temperature, then washed once with PBS buffer. Images of each well were then captured via a Leica DMI 6000 microscope and an image analysis program (Image-Pro plus) utilised to count the nuclei. For each treatment (recombinant 310 positive control, and synthetic peptides (2-3) and (1-4/2-3) at 10 and 20 µg/ml), 3-6 wells per treatment were analysed.

A further experiment deals with myostatin. The note with it: recombinant peptide, WO 2008/016314; cited from earlier work.

Several values for one entry are separate records, joined by “and”; a condition that tells them apart may be missing. Equal values may be shown once. Bridge positions count the residues as written; N and C are the ends. Ends that are not written are not given here.

With “1-2: Synthetic 267-310 myostatin peptide with 1-2 cysteine connectivity (DFGLDCDEHSTESRCCRYPLTVDFEAFGWDWIIAPKRYKANYCS; disulfide 6-15; not fully specified (bridges); cysteine pairing not given here; UniProt O18836 267-310, looked up, fragment)”, in the experiment with myoblasts, the “biological activity / enhanced myoblast proliferation (in words)” value is reported as “not biologically active”.
As for “1-3: Synthetic 267-310 myostatin peptide with 1-3 cysteine connectivity (DFGLDCDEHSTESRCCRYPLTVDFEAFGWDWIIAPKRYKANYCS; disulfide 6-16; not fully specified (bridges); cysteine pairing not given here; UniProt O18836 267-310, looked up, fragment)”, in the experiment with myoblasts, the “biological activity / enhanced myoblast proliferation (in words)” value is given as “not biologically active”.
Still for that read-out and setting: in the case of “1-4: Synthetic 267-310 myostatin peptide with 1-4 cysteine connectivity (DFGLDCDEHSTESRCCRYPLTVDFEAFGWDWIIAPKRYKANYCS; disulfide 6-43; not fully specified (bridges); cysteine pairing not given here; UniProt O18836 267-310, looked up, fragment)” it was “not biologically active”; in that of “2-4: Synthetic 267-310 myostatin peptide with 2-4 cysteine connectivity (DFGLDCDEHSTESRCCRYPLTVDFEAFGWDWIIAPKRYKANYCS; disulfide 15-43; not fully specified (bridges); cysteine pairing not given here; UniProt O18836 267-310, looked up, fragment)”, “not biologically active”; in that of “3-4: Synthetic 267-310 myostatin peptide with 3-4 cysteine connectivity (DFGLDCDEHSTESRCCRYPLTVDFEAFGWDWIIAPKRYKANYCS; disulfide 16-43; not fully specified (bridges); cysteine pairing not given here; UniProt O18836 267-310, looked up, fragment)”, “not biologically active”.
Take “310 positive control: Recombinant peptide of amino acids 267-310 of bovine myostatin with N terminal and C terminal tags, positive control (DFGLDCDEHSTESRCCRYPLTVDFEAFGWDWIIAPKRYKANYCS; cysteine pairing not given here; also: N- and C-terminal tags; UniProt O18836 267-310, looked up, fragment) [reference compound]”: the “% proliferation above control” value in the experiment on C2C12 myoblasts [1] (10 μg, 48 h) is 113.58% and 111.76%; with C2C12 myoblasts [1] (10 μg, 72 h), 122.97% and 119.64%. In the experiment with C2C12 myoblasts [1], the “myoblast proliferation / biological activity (in words)” value was “significantly enhanced myoblast proliferation”. Also, the “Number of nuclei per well” value is 847.1 and 816.7 in the experiment with C2C12 myoblasts [2] (10 μg, 48 h); 2429.3 and 2229.2 in the experiment on C2C12 myoblasts [2] (10 μg, 72 h).
Take “310 synthetic peptide that was N-terminally truncated at amino acid position 282: Synthetic peptide of amino acids 282-310 of SEQ ID NO:1, only cysteines 3 and 4 (CRYPLTVDFEAFGWDWIIAPKRYKANYCS; only cysteines 3 and 4; listed as Homo sapiens)”: the “biological activity / enhanced myoblast proliferation (in words)” value in the experiment with myoblasts is listed as “not active”.
As for “Synthetic 310 (2-3 connectivity): Synthetic peptide of amino acids 267-310 of bovine myostatin with forced disulfide between cysteines 2 and 3 (281, 282) (DFGLDCDEHSTESRCCRYPLTVDFEAFGWDWIIAPKRYKANYCS; disulfide 15-16; not fully specified (bridges); cysteine pairing not given here; UniProt O18836 267-310, looked up, fragment)”, the “% proliferation above control” value with C2C12 myoblasts [1] (0.1 μg, 48 h) came out at 101.66%; with C2C12 myoblasts [1] (0.1 μg, 72 h), 101.06%; with C2C12 myoblasts [1] (1.0 μg, 48 h), 97.70%; in the experiment on C2C12 myoblasts [1] (1.0 μg, 72 h) it was 102.00%; in the experiment on C2C12 myoblasts [1] (10 μg, 48 h), 104.18%; in the experiment on C2C12 myoblasts [1] (10 μg, 72 h), 103.83%. Moreover, the “% proliferation above control” value in the experiment on C2C12 myoblasts [1] (20.0 μg, 48 h) amounted to 105.00%; in the experiment on C2C12 myoblasts [1] (20.0 μg, 72 h), 105.07%. Moreover, in the experiment with C2C12 myoblasts [1], the “myoblast proliferation / biological activity (in words)” value is “biologically active”. Besides, the “Number of nuclei per well” value was 810.5 with C2C12 myoblasts [2] (10 μg, 48 h); 1906.1 in the experiment with C2C12 myoblasts [2] (10 μg, 72 h); 808.9 in the experiment with C2C12 myoblasts [2] (20.0 μg, 48 h); 1903.6 with C2C12 myoblasts [2] (20.0 μg, 72 h). For the same substance, the “increase in cell numbers (in words)” value in the experiment on C2C12 myoblasts [2] (48 h) and with C2C12 myoblasts [2] (72 h) was “significant increases in cell numbers” throughout.
As to “Synthetic 310 (2-3/1-4 connectivity): Synthetic peptide of amino acids 267-310 of bovine myostatin (SEQ ID NO:4) with forced 2-3/1-4 disulfide connectivity (DFGLDCDEHSTESRCCRYPLTVDFEAFGWDWIIAPKRYKANYCS; disulfide 15-16, 6-43)”, in the experiment on myoblasts, the “biological activity / enhanced myoblast proliferation (in words)” value is listed as “biologically active”. The “% proliferation above control” value with C2C12 myoblasts [1] (0.1 μg, 48 h) came to 100.17%; with C2C12 myoblasts [1] (0.1 μg, 72 h) it was 100.54%; in the experiment with C2C12 myoblasts [1] (1.0 μg, 48 h) it was 100.07%; in the experiment with C2C12 myoblasts [1] (1.0 μg, 72 h) it was 102.60%; in the experiment on C2C12 myoblasts [1] (10 μg, 48 h), 108.58%; with C2C12 myoblasts [1] (10 μg, 72 h), 107.51%. Further, the “% proliferation above control” value in the experiment on C2C12 myoblasts [1] (20.0 μg, 48 h) is on record as 106.87%; in the experiment with C2C12 myoblasts [1] (20.0 μg, 72 h) it was 110.47%. The “myoblast proliferation / biological activity (in words)” value with C2C12 myoblasts [1] is “slightly more biological activity”. Further, the “Number of nuclei per well” value turned out to be 810.2 in the experiment with C2C12 myoblasts [2] (10 μg, 48 h); 2328.2 in the experiment with C2C12 myoblasts [2] (10 μg, 72 h); 739.3 in the experiment on C2C12 myoblasts [2] (20.0 μg, 48 h); 2172.0 in the experiment with C2C12 myoblasts [2] (20.0 μg, 72 h). Besides, the “increase in cell numbers (in words)” value in the experiment with C2C12 myoblasts [2] (72 h) is listed as “significant increases in cell numbers”.
As for “linear 310 synthetic peptide: Synthetic 267-310 myostatin peptide, linear, no forced connectivity (DFGLDCDEHSTESRCCRYPLTVDFEAFGWDWIIAPKRYKANYCS; Growth/differentiation factor 8 linear; UniProt O18836 267-310, looked up, fragment)”, in the experiment with myoblasts, the “biological activity / enhanced myoblast proliferation (in words)” value was “showed enhanced myoblast proliferation”.
On to “mature recombinant myostatin peptide C-terminally truncated at position 281: Recombinant mature myostatin peptide truncated at 281, two cysteines (1-2 connectivity), from WO 2008/016314 (DFGLDCDEHSTESRC; disulfide 6-15; UniProt O18836 267-281, looked up, fragment)”, for which, in the experiment on myostatin, the “biological activity (in words)” value is reported as “biologically active”.
As for “synthetic peptide having a truncation position at 281: Synthetic mature myostatin peptide C-terminally truncated at position 281 (DFGLDCDEHSTESRC; Growth/differentiation factor 8; UniProt O18836 267-281, looked up, fragment)”, the “biological activity / enhanced myoblast proliferation (in words)” value in the experiment on myoblasts was “not biologically active”.
